The results in this text go back to PubChem BioAssay AID449772 (The Scripps Research Institute Molecular Screening Center, 2010).

Active and inactive are the calls of the source.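 Rule for the calls: active = mass spectrometry shows the compound covalently bound to the catalytic cysteine of glutathione transferase omega 1; inactive = no covalent bond to that cysteine seen.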

The assay addresses Glutathione S-transferase omega-1 (Homo sapiens) (UniProt P78417). Kind of assay: GSTO1 catalytic cysteine binding mode – biophysical, LC-MS/MS, mechanism study, late-stage follow-up (AID 449772). The following applies: purified GSTO1, LC-MS/MS active-site cysteine labeling.

Chain of Glutathione S-transferase omega-1 (Homo sapiens) (P78417 whole entry, looked up): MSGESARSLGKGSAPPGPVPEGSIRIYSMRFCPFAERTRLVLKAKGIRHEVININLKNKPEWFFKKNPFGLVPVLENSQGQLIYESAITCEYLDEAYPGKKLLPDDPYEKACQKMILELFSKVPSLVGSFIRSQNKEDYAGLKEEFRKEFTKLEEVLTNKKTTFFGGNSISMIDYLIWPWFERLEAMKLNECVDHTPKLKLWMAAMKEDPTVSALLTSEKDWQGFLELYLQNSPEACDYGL

Turning to `COc1ccc(C(C(=O)NC2CCCCC2)N(C(=O)CCl)c2cccc(Cl)c2)cc1` (configuration not stated), the outcome was active. With `O=C(NC1CCCCC1)C(c1cccnc1)N(C(=O)CCl)c1ccc(F)cc1` (configuration not stated), the outcome was active.
